Results from patent US12559497B2, “Imidazopiperazine inhibitors of transcription activating proteins” (Board of Regents, The University of Texas System, priority 2020, dated 2026).
Values belong to the compound of their own block, whether it stands above or below them.

What was measured:
[1] = Metabolic stability in mouse liver microsomes; type: in vitro ADME, CD-1 mouse; settings: CD-1, liver microsomes, pH 7.4, 0.5 mg/mL microsomes, NADPH, 45 minutes, 37° C., read-out: Half-life in liver microsomes (t1/2)
Procedure: (§1) Microsomal stability. Microsomal stability assays were conducted on a Beckmann Biomek FXp laboratory automation system. The liver microsomal incubation mixture consisted of liver microsomes (0.5 mg microsomal protein/mL), the Compound (1 μM), MgCl2 (3 mM), and EDTA (1 mM) in potassium phosphate buffer (100 mM, pH 7.4). Midazolam and Ketanserin were used as the assay control substrates. The reaction was initiated with the addition of an NADPH regeneration solution (1.3 mM NADPH) and maintained at 37° C. with shaking. At five time points ranging from 0 to 45 min, aliquots (50 μL) were removed and quenched with acetonitrile (100 μL) containing an internal standard (imipramine). After vortex and centrifugation, samples were analyzed by LC-MS/MS. Calculation of the in vitro half-lives and clearance followed literature guidelines.

[2] = In vivo pharmacokinetics after a single dose, monkey; settings: male, plasma, Cynomolgus monkey
Procedure: (§2) IV (intravenous) doses were formulated in 20% DMSO+60% PEG400+20% water. PO (per os) doses were formulated in 0.5% methylcellulose in water.
(§3) Monkey: Male Cynomolgus monkeys (purchased from Hainan Jingang Biotech. Co., Ltd) weighing 3-5 kg were used for studies. Animals were fasted overnight and fed 4 h postdose. Test article was administered to monkeys via the cephalic vein (IV doses) or nasal gavage (PO doses). Blood samples were collected via the saphenous vein or cephalic vein from all animals at predose and 0.083, 0.25, 0.5, 1, 2, 4, 8, and 24 h postdose into tubes containing the anticoagulant K2EDTA. Plasma was separated from the blood by centrifugation at 4° C. and stored at −70° C. until analysis. Test article concentrations in plasma were quantified using a liquid chromatography with tandem mass spectrometry (LC-MS/MS) method.

DOHH2 cells = assay: DOHH2 Proliferation Assay; type: cell-based; settings: Homo sapiens, DOHH-2, 168 h; CellTiter-Glo viability on day 7
Procedure: DOHH2 Proliferation Assay: On day 1, 1000 DOHH2 cells were seeded to a 384-well TC plate (PerkinElmer #6007680) in 40 μL RPMI 1640 media, followed by the addition of CBP inhibitors except for column 13 where 3.3 μM staurosporine was added as negative control. DMSO was 0.1% in all the wells. The cells were lysed in and counted viability by 40 μL CellTiter-Glo (Promega #G9243) on day 7. The luminescent signal was quantified by Envision Multilabel plate reader and the standard dose response curves were fitted by Genedata Screener software using the variable-slope model: Signal=Signalnegative control+(SignalDMSO control−Signalnegative control)/(1+(IC50/Dose)∧Hill slope).
(§4) Only Signal and Dose in the equation were treated as known values.

[3] = Metabolic stability in rat liver microsomes; type: in vitro ADME; settings: Sprague Dawley, pH 7.4, 0.5 mg/mL microsomes, NADPH, 45 minutes, 37° C., read-out: Half-life in liver microsomes (t1/2)
Procedure: as §1

[4] = In vivo pharmacokinetics after a single dose, rat; settings: male, plasma, Sprague-Dawley rat
Procedure: as §2
Rat: Male rats (SD strain, purchased from Shanghai JH Laboratory Animal Co. LTD) weighing 200-300 g were used for studies. Animals were fasted overnight and fed 4 h postdose. Water was available ad libitum for all animals. Test article was dosed via dorsal foot vein (IV doses) or oral gavage (PO doses). Blood samples were collected via tail vein from all animals at predose and at 0.083, 0.25, 0.5, 1, 2, 4, 8, and 24 h postdose into tubes containing the anticoagulant K2EDTA. Plasma was separated from the blood by centrifugation at 4° C. and stored at −70° C. until analysis. Test article concentrations in plasma were quantified using a liquid chromatography with tandem mass spectrometry (LC-MS/MS) method.

[5] = Metabolic stability in dog liver microsomes; type: in vitro ADME; settings: pH 7.4, read-out: Liver microsomal clearance (t1/2)
Procedure: as §1

[6] = molecular target: T1, BRD4 (49-170) bromodomain (Homo sapiens, UniProt O60885); assay: BRD4 AlphaScreen assay; settings: binding to biotin-H4 (1-21) Ac-K5/8/12/16
T1 construct: The GST tagged bromodomains of CBP (1081-1197) and BRD4 (49-170) were obtained from BPS Bioscience; purchased BPS Bioscience
Procedure: (§5) Specific binding of the CBP or BRD4 bromodomain to the acetylated peptide derived from the H4 histone substrate (tetra acetylated H4 (1-21) Ac—K5/8/12/16) was measured in absence or presence of inhibitors. The GST tagged bromodomains of CBP (1081-1197) and BRD4 (49-170) were obtained from BPS Bioscience and binding to the biotinylated H4 (1-21) Ac—K5/8/12/16 (AnaSpec. 64989) was assessed via AlphaScreen technology (Perkin Elmer).
(§6) BRD4 AlphaScreen assay: The binding of 2.5 nM of BRD4 (49-170) to 10 nM biotin-H4 (1-21) Ac—K5/8/12/16 (AnaSpec. 64989) was assessed following the same procedure described for the CBP assay. The standard dose response curves were fitted by Genedata Screener software using the variable-slope model: Signal=Signalnegative control+(SignalDMSO control−Signalnegative control)/(1+(IC50/Dose)∧Hill slope).
as §4

[7] = In vivo pharmacokinetics after a single dose, dog; settings: male, plasma, Beagle dog
Procedure: as §2
as §3, with “Dog:” for “Monkey:”, “Beagle dogs” for “Cynomolgus monkeys”, “Beijing Marshall Biotechnology” for “Hainan Jingang Biotech.”, “7-10” for “3-5”, “dogs” for “monkeys”, “oral” for “nasal”

[8] = molecular target: T2, GST-CBP (1081-1197) bromodomain (Homo sapiens, UniProt Q92793); assay: CBP AlphaScreen assay; settings: binding to biotin-H4 (1-21) Ac-K5/8/12/16
T2 construct: The GST tagged bromodomains of CBP (1081-1197) and BRD4 (49-170) were obtained from BPS Bioscience; purchased BPS Bioscience
Procedure: as §5
CBP AlphaScreen assay: 5 nM GST-CBP (1081-1197) and 20 nM biotin-H4 (1-21) Ac—K5/8/12/16 (AnaSpec. 64989) were incubated with varying concentrations of CBP inhibitors in 15 μL of buffer containing 50 mM HEPES 7.5, […], 1 mM TCEP, and 0.003% Tween-20. After 30 minutes incubation at room temperature, 15 μL of detection buffer (BPS Bio. 33006) containing 7 μg/mL of Glutathione AlphaLisa acceptor beads (Perkin Elmer AL109) and 14 μg/mL of Streptavidin donor beads (Perkin Elmer 676002) was then added to the previous mixture. The reaction was incubated for an additional 2 hours at room temperature, and the AlphaScreen signal was quantified using the Envision Multilabel plate reader. As negative control, GST-CBP (1081-1197) was incubated with the non-acetylated biotin-H4 (1-21) peptide (AnaSpec. 62555) and in presence of 0.25% of final DMSO concentration.
as §6, §4

[9] = Metabolic stability in monkey liver microsomes; type: in vitro ADME; settings: pH 7.4, read-out: Liver microsomal clearance (t1/2)
Procedure: as §1

[10] = In vivo pharmacokinetics after a single dose, mouse; design: species or system Female CD-1 Mice; settings: for mouse in vivo clearances compared to the structural analogs previously disclosed / mouse in vivo half-lives compared to the structural analogs previously disclosed: in words; for clearance / half-life / Vd: plasma, Female CD-1 mice, single dose 0.2 or 0.3 mg/kg IV; for Vd: read-out: Vss
Procedure: as §2
Mouse: Female mice (CD1 strain, purchased from Shanghai JH Laboratory Animal Co. LTD) weighing 20-30 g were used for studies. Food and water were available to all animals ad libitum. The test article was dosed via tail vein (IV doses) or oral gavage (PO doses), respectively. Blood samples were collected from all animals at predose and at 0.083, 0.25, 0.5, 1, 2, 4, 8, and 24 h postdose into tubes containing the anticoagulant K2EDTA (3 animals per time point with 3 time points collected per animal). Plasma was separated from the blood by centrifugation at 4° C. and stored at −70° C. until analysis. Test article concentrations in plasma were quantified using a liquid chromatography with tandem mass spectrometry (LC-MS/MS) method.

[11] = Metabolic stability in human liver microsomes; type: in vitro ADME; settings: pH 7.4, 0.5 mg/mL microsomes, NADPH, 45 minutes, 37° C., read-out: Half-life in liver microsomes (t1/2)
Procedure: as §1

[12] = 1 mg/kg IV single dose, read-out: Vss

T2 sequence (Q92793 1081-1197): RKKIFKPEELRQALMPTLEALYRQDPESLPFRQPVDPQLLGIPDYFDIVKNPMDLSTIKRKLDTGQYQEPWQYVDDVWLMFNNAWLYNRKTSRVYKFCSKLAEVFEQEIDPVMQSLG

- half-life at 1 μM [1]: 6.55 h
- clearance ([2]; 1 mg/kg IV single dose): 6.97 mL/min/kg
- half-life ([2]; 1 mg/kg IV single dose): 4.74 h
- Vd [2, 12]: 2.28 L/kg
- AUC(0-t) ([2]; 3 mg/kg PO single dose): 11.3 µM·h
- Cmax ([2]; 3 mg/kg PO single dose): 1970 nM
- bioavailability ([2]; 3 mg/kg PO single dose): 70.5%
- half-life at 1 μM [3]: 20.4 h
- clearance ([4]; 1 mg/kg IV single dose): 11.2 mL/min/kg
- half-life ([4]; 1 mg/kg IV single dose): 3.82 h
- Vd [4, 12]: 2.31 L/kg
- AUC(0-t) ([4]; 30 mg/kg PO single dose): 124 µM·h
- Cmax ([4]; 30 mg/kg PO single dose): 23000 nM
- bioavailability ([4]; 30 mg/kg PO single dose): 129%
- half-life at 1 μM [5]: 11.9 h
- IC50 [6]: 13200 nM
- clearance ([7]; 1 mg/kg IV single dose): 4.3 mL/min/kg
- half-life ([7]; 1 mg/kg IV single dose): 9.74 h
- Vd [7, 12]: 3.38 L/kg
- AUC(0-t) ([7]; 3 mg/kg PO single dose): 26.2 µM·h
- Cmax ([7]; 3 mg/kg PO single dose): 2560 nM
- bioavailability ([7]; 3 mg/kg PO single dose): 119%
- IC50 [8]: 7 nM
- half-life at 1 μM [9]: 1.62 h
- mouse in vivo clearances compared to the structural analogs previously disclosed [10]: dramatic decrease
- mouse in vivo half-lives compared to the structural analogs previously disclosed [10]: increase
- clearance [10]: 6.2 mL/min/kg
- half-life [10]: 2.99 h
- Vd [10]: 1.45 L/kg
- half-life at 1 μM [11]: 5.17 h
Compound: CC(=O)N1CCn2c(C3CCOCC3)nc(-c3cccc4cc(-c5cnc(C)s5)ncc34)c2C1 [Compound 1, 1-(1-(3-(2-methylthiazol-5-yl)isoquinolin-8-yl)-3-(tetrahydro-2H-pyran-4-yl)-5,6-dihydroimidazo[1,5-α]pyrazin-7 (8H)-yl)ethan-1-one]
- IC50 (DOHH2 cells): 261 nM

- IC50 [6]: 25000 nM
- IC50 [8]: 15 nM
Compound: CNC(=O)c1ccc(-c2cc3cccc(-c4nc(C5CC5)n5c4CN(C(C)=O)CC5)c3cn2)cn1 [Compound 2, 5-(8-(7-Acetyl-3-cyclopropyl-5,6,7,8-tetrahydroimidazo[1,5-α]pyrazin-1-yl)isoquinolin-3-yl)-N-methylpicolinamide]
- IC50 (DOHH2 cells): 376 nM

- half-life at 1 μM [1]: 8.03 h
- half-life at 1 μM [3]: 5.03 h
- IC50 [6]: 15000 nM
- IC50 [8]: 16 nM
- mouse in vivo clearances compared to the structural analogs previously disclosed [10]: dramatic decrease
- mouse in vivo half-lives compared to the structural analogs previously disclosed [10]: increase
- clearance [10]: 11.9 mL/min/kg
- half-life [10]: 2.55 h
- Vd [10]: 1.84 L/kg
- half-life at 1 μM [11]: 4.82 h
Compound: CNC(=O)c1ccc(-c2cc3cccc(-c4nc(C5CCOCC5)n5c4CN(C(C)=O)CC5)c3cn2)cn1 [Compound 3, 5-(8-(7-Acetyl-3-(tetrahydro-2H-pyran-4-yl)-5,6,7,8-tetrahydroimidazo[1,5-α]pyrazin-1-yl)isoquinolin-3-yl)-N-methylpicolinamide]
- IC50 (DOHH2 cells): 232 nM

- IC50 [6]: 17000 nM
- IC50 [8]: 22 nM
Compound: CNC(=O)c1ccc(-c2cc3cccc(-c4nc(C56CCC(CC5)OC6)n5c4CN(C(C)=O)CC5)c3cn2)cn1 [Compound 4, 5-(8-(7-acetyl-3-(2-oxabicyclo[2.2.2]octan-4-yl)-5,6,7,8-tetrahydroimidazo[1,5-α]pyrazin-1-yl)isoquinolin-3-yl)-N-methylpicolinamide]
- IC50 (DOHH2 cells): 676 nM

- IC50 [6]: 20400 nM
- IC50 [8]: 34 nM
Compound: CNC(=O)c1ccc(-c2cc3ccc(F)c(-c4nc(C5CCOCC5)n5c4CN(C(C)=O)CC5)c3cn2)cn1 [Compound 5, 5-(8-(7-Acetyl-3-(tetrahydro-2H-pyran-4-yl)-5,6,7,8-tetrahydroimidazo[1,5-α]pyrazin-1-yl)-7-fluoroisoquinolin-3-yl)-N-methylpicolinamide]
- IC50 (DOHH2 cells): 216 nM

- IC50 [6]: 22200 nM
- IC50 [8]: 14 nM
Compound: CC(=O)N1CCn2c(C3CCOCC3)nc(-c3c(F)ccc4cc(-c5cnc(C)s5)ncc34)c2C1 [Compound 6, 1-(1-(7-fluoro-3-(2-methylthiazol-5-yl)isoquinolin-8-yl)-3-(tetrahydro-2H-pyran-4-yl)-5,6-dihydroimidazo[1,5-α]pyrazin-7 (8H)-yl)ethan-1-one]
- IC50 (DOHH2 cells): 541 nM

- half-life at 1 μM [1]: 10.2 h
- half-life at 1 μM [3]: 9 h
- clearance [10]: 54.8 mL/min/kg
- half-life [10]: 0.588 h
- Vd [10]: 2 L/kg
- half-life at 1 μM [11]: 7.7 h
Compound: CNC(=O)c1ccc(-c2cc3cccc(-c4nc(C5CCOCC5)n5c4CN(C(=O)NC)CC5)c3cn2)cn1 [Compound 8, reference compound]
